Values quoted from earlier work as cited in patent publication US9498539B2, “Affinity-based controlled release system” (priority 2012, dated 2016).
Like-named read-outs stand apart in the source and are kept apart here.

How the values were obtained:
Streptavidin = Streptavidin (Streptomyces avidinii, UniProt P22629); details: streptavidin binds 2-iminobiotin, medium affinity; cited from earlier work
[1] = 24 h; cited from earlier work
[2] = target: Src homology 3 domain (SH3) (Saccharomyces cerevisiae, UniProt P15891); details: read-out: Kd (affinity to SH3), SH3-binding peptide to SH3, not part of the composition, cited from earlier work
Chain of Src homology 3 domain (SH3) (P15891 532-592 limits assumed): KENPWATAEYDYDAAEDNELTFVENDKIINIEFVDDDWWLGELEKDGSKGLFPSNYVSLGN

Chain of Streptavidin (P22629 25-183): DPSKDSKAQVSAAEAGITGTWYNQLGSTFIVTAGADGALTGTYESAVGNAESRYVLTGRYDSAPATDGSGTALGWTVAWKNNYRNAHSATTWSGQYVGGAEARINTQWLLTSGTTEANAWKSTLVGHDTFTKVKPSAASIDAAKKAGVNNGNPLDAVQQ

N=C1N[C@H]2[C@H](CS[C@H]2CCCCC(=O)O)N1 [2-iminobiotin]
Kd (Streptavidin): 12.5 µM

FGF-2: basic fibroblast growth factor, literature data of Nakamura et al.
remaining bioactivity [1]: < 10%

KPPVVKKPHYLS [compound 4]
Kd [2]: 27 µM
Kd ([2]; listed as weak binder): 10 µM
